Laboratory results reported in ChEMBL document CHEMBL3991601, “The target landscape of clinical kinase drugs” (Science, 2017).
Active and inactive are the calls of the source.

Columns and labels:
Actin-related protein 2 = Actin-related protein 2 (Homo sapiens, UniProt P61160)
Aurora kinase A = target: T1, Aurora kinase A (Homo sapiens, UniProt O14965)
T1 sequence (O14965 whole entry): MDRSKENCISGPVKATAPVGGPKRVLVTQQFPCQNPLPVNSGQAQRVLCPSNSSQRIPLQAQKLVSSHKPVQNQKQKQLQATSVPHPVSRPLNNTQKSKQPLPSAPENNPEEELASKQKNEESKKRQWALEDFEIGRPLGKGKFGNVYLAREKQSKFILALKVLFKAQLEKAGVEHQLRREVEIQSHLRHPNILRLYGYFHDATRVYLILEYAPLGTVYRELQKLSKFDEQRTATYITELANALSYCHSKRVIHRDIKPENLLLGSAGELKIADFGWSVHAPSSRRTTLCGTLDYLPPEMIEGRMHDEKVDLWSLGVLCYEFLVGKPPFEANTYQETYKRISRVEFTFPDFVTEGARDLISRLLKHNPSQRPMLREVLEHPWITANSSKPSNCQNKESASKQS

[1] = target: Bone morphogenetic protein receptor type-1A (Homo sapiens, UniProt P36894)
[2] = target: Serine/threonine-protein kinase/endoribonuclease IRE2 (Homo sapiens, UniProt Q76MJ5)
[3] = target: T2, Serine/threonine-protein kinase LATS1 (Homo sapiens, UniProt O95835)
T2 sequence (O95835 whole entry): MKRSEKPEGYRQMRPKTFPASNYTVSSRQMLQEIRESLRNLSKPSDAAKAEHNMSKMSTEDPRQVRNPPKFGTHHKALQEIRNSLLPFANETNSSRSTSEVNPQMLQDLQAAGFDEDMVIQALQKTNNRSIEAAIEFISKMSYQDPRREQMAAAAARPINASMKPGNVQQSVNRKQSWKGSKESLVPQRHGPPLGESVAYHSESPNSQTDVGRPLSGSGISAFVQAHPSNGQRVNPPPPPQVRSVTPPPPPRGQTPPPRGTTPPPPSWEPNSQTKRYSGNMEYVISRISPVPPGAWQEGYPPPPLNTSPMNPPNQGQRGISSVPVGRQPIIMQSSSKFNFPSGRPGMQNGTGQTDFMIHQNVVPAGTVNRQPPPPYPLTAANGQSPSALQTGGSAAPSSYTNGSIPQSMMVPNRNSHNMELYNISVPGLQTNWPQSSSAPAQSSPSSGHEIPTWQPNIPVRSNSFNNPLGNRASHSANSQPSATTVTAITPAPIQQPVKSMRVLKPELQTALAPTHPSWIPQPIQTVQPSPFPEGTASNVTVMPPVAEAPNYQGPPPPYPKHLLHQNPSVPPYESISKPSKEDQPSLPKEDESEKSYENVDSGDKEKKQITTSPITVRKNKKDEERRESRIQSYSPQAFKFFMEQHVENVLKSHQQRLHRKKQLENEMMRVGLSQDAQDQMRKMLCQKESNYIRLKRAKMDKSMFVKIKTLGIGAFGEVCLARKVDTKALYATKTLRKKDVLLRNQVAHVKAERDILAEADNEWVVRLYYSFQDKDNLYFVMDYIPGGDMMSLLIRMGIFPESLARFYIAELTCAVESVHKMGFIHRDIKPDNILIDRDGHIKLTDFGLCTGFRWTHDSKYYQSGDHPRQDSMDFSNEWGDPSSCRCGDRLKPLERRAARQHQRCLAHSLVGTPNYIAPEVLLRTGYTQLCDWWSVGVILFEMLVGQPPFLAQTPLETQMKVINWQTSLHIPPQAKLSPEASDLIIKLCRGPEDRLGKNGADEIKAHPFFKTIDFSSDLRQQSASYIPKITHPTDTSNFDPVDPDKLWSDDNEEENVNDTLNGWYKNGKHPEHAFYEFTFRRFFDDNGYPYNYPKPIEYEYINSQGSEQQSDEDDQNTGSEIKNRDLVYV

[4] = target: Mitogen-activated protein kinase kinase kinase kinase 1 (Homo sapiens, UniProt Q92918)
[5] = target: Mitogen-activated protein kinase 1 (Homo sapiens, UniProt P28482)
[6] = target: Receptor-interacting serine/threonine-protein kinase 3 (Homo sapiens, UniProt Q9Y572)
[7] = target: Ribosomal protein S6 kinase alpha-5 (Homo sapiens, UniProt O75582)
ADP/ATP translocase 2 = target: T3, ADP/ATP translocase 2 (Homo sapiens, UniProt P05141)
T3 sequence (P05141 whole entry): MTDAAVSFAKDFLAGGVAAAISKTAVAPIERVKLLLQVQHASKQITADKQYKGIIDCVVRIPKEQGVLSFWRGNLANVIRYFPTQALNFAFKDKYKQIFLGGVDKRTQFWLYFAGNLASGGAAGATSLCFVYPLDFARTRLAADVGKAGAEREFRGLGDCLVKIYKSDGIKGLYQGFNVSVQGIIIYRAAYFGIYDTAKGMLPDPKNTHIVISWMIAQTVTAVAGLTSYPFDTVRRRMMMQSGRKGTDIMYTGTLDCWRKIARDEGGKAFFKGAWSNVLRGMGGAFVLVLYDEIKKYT

Measured: Kd
Note: in the data inactive means no Kd found up to 30 µM.

Sequence of Receptor-interacting serine/threonine-protein kinase 3 (Q9Y572 whole entry): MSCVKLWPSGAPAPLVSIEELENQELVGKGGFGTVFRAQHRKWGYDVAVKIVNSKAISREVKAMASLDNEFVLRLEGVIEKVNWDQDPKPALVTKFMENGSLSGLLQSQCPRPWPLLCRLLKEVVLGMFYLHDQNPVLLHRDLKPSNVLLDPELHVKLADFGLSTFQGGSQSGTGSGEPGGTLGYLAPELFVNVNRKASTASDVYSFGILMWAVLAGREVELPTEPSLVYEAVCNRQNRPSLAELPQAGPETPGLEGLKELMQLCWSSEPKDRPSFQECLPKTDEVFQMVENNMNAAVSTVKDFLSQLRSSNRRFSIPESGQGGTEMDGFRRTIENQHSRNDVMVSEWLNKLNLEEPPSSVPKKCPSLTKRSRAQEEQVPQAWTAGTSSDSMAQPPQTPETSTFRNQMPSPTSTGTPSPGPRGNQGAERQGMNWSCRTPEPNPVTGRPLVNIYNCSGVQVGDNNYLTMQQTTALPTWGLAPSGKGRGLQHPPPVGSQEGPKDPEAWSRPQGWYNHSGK
Sequence of Mitogen-activated protein kinase 1 (P28482 whole entry): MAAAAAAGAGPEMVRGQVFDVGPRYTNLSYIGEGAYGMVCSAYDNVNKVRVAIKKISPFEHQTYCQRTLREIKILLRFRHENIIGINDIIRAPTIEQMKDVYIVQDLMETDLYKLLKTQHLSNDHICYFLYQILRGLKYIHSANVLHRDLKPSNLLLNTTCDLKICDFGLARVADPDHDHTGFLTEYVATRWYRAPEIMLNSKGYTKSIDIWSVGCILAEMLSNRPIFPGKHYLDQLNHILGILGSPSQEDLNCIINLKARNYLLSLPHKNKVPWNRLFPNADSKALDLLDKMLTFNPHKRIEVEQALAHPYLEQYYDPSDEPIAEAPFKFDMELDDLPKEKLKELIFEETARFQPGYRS
Sequence of Ribosomal protein S6 kinase alpha-5 (O75582 whole entry): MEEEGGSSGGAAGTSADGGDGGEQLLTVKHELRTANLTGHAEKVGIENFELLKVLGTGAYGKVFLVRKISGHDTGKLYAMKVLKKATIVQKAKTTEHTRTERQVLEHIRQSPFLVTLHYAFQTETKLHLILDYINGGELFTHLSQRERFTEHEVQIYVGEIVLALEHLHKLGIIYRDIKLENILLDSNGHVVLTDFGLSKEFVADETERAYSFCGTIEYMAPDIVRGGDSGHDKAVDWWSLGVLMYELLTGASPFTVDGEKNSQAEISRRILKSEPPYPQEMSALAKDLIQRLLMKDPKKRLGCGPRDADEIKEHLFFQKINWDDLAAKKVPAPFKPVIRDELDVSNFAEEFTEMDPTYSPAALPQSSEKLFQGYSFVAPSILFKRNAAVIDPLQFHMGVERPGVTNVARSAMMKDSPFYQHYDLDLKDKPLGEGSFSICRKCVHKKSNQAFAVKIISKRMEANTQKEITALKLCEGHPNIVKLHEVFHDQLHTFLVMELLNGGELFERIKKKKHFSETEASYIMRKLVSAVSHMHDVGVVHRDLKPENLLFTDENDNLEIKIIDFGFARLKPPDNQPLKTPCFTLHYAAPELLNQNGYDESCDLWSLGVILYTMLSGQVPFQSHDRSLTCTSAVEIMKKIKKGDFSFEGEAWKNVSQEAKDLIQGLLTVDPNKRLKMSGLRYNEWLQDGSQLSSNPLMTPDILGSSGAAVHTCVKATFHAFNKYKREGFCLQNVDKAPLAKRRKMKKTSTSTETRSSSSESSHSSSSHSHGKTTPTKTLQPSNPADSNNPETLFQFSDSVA
Sequence of Mitogen-activated protein kinase kinase kinase kinase 1 (Q92918 whole entry): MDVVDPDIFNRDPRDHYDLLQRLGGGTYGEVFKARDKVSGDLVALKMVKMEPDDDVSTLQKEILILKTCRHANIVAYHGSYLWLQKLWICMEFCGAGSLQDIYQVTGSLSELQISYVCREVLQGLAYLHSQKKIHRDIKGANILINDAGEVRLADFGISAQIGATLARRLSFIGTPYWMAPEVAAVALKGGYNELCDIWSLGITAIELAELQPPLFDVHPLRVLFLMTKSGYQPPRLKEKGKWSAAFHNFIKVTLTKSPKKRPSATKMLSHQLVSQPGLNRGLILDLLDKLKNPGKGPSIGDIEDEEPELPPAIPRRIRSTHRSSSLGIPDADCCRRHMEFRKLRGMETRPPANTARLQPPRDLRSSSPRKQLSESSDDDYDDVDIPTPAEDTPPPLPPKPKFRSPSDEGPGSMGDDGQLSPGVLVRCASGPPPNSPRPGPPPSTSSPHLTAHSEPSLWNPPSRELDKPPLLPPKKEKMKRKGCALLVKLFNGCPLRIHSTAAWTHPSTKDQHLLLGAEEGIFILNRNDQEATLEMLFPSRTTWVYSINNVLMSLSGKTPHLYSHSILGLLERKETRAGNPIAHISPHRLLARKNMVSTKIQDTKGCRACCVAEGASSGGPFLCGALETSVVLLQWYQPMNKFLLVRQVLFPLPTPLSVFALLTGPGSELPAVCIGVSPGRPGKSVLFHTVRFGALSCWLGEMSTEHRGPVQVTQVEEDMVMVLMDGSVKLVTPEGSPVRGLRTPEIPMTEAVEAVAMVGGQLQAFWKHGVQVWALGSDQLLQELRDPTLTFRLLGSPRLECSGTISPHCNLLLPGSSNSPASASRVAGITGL
Sequence of Serine/threonine-protein kinase/endoribonuclease IRE2 (Q76MJ5 whole entry): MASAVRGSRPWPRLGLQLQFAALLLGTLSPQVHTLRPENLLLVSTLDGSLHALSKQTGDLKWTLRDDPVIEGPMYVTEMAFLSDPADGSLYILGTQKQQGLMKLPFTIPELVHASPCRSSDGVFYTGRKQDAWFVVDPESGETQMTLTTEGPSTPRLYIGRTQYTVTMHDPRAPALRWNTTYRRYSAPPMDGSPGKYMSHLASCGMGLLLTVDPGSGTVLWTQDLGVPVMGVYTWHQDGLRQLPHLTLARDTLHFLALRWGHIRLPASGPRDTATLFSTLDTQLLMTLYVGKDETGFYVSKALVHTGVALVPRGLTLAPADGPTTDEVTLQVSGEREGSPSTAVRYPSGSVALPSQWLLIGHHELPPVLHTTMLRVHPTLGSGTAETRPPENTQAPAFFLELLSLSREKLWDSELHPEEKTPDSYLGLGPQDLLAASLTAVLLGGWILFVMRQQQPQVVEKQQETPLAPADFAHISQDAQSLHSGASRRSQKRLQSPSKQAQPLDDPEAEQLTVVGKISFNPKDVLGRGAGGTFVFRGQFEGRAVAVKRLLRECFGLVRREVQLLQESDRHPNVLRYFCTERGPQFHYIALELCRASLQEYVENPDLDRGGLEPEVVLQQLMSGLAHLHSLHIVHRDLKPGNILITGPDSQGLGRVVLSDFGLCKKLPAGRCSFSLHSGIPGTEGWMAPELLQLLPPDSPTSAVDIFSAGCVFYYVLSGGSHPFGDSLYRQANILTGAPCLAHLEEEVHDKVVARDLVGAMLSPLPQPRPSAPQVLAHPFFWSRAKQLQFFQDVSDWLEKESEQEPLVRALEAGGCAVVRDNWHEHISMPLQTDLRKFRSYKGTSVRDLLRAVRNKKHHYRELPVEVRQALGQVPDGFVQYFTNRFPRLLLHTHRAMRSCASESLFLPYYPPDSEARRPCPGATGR
Sequence of Bone morphogenetic protein receptor type-1A (P36894 whole entry): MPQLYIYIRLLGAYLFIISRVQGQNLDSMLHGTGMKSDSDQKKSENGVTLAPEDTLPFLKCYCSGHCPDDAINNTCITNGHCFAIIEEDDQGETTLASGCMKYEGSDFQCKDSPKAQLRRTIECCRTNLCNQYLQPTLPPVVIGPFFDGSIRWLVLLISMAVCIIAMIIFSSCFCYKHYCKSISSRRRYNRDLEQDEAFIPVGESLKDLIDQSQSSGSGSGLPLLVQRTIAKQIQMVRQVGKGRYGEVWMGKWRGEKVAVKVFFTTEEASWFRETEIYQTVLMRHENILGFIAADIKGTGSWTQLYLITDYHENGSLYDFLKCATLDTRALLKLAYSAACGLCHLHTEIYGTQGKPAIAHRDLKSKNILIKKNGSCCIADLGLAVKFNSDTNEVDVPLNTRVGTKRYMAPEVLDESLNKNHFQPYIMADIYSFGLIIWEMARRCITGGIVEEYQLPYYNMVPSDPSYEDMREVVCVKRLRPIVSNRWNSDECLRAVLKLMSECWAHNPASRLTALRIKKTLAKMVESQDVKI

Cn1c(=O)c(F)c(Nc2ccc(I)cc2F)c2c(=O)n(C[C@@H](O)CO)cnc21 [TAK-733]
inactive: Actin-related protein 2 > 30 µM | Aurora kinase A > 30 µM | [1] > 30 µM | [2] > 30 µM | [3] > 30 µM | [4] > 30 µM | [5] > 30 µM | [6] > 30 µM | [7] > 30 µM | ADP/ATP translocase 2 > 30 µM

O[C@H]1CC[C@H](Nc2ncc3nc(Nc4c(F)cc(F)cc4F)n([C@H]4CCOC4)c3n2)CC1 [TANZISERTIB]
inactive: Actin-related protein 2 > 30 µM | Aurora kinase A > 30 µM | [1] > 30 µM | [2] > 30 µM | [3] > 30 µM | [4] > 30 µM | [6] > 30 µM | [7] > 30 µM | ADP/ATP translocase 2 > 30 µM
active: [5] 1.23 µM

CNC(=O)c1cc(COc2nnc(Nc3ccc(Cl)cc3)c3ccoc23)ccn1 [TELATINIB]
inactive: Actin-related protein 2 > 30 µM | Aurora kinase A > 30 µM | [1] > 30 µM | [2] > 30 µM | [3] > 30 µM | [4] > 30 µM | [5] > 30 µM | [6] > 30 µM | [7] > 30 µM | ADP/ATP translocase 2 > 30 µM

C[C@@H]1COC(Nc2ccc3ncnc(Nc4ccc(OCc5nccs5)c(Cl)c4)c3c2)=N1 [VARLITINIB]
inactive: Actin-related protein 2 > 30 µM | Aurora kinase A > 30 µM | [1] > 30 µM | [2] > 30 µM | [3] > 30 µM | [4] > 30 µM | [5] > 30 µM | [7] > 30 µM | ADP/ATP translocase 2 > 30 µM
active: [6] 0.088 µM

CNC(=O)c1cccc(-c2ccc3c(N4CCOC[C@@H]4C)nc(N4CCOC[C@@H]4C)nc3n2)c1 [VISTUSERTIB]
inactive: Actin-related protein 2 > 30 µM | Aurora kinase A > 30 µM | [1] > 30 µM | [2] > 30 µM | [3] > 30 µM | [4] > 30 µM | [5] > 30 µM | [6] > 30 µM | [7] > 30 µM | ADP/ATP translocase 2 > 30 µM

NC(=O)c1ccc(N(C(N)=O)c2c(F)cccc2F)nc1-c1ccc(F)cc1F [VX-702]
inactive: Actin-related protein 2 > 30 µM | Aurora kinase A > 30 µM | [1] > 30 µM | [2] > 30 µM | [3] > 30 µM | [4] > 30 µM | [5] > 30 µM | [6] > 30 µM | [7] > 30 µM | ADP/ATP translocase 2 > 30 µM

COc1cc2ncnc(Nc3ccc(O)cc3)c2cc1OC [WHI-P131]
inactive: Actin-related protein 2 > 30 µM | Aurora kinase A > 30 µM | [1] > 30 µM | [2] > 30 µM | [3] > 30 µM | [4] > 30 µM | [5] > 30 µM | [6] > 30 µM | [7] > 30 µM | ADP/ATP translocase 2 > 30 µM
